Assay results as given in patent US8129355B2, “Ketone ligands for modulating the expression of exogenous genes via an ecdysone receptor complex” (priority 2002, dated 2012).
Where two headings read alike, the source gives them in different places.

How the values were obtained:
[1] = target: T1, GAL4 DBD-CfEcR(DEF)/VP16AD-MmRXRE (Choristoneura fumiferana, UniProt O77240); experiment: cell-based
T1 sequence (O77240 1-513): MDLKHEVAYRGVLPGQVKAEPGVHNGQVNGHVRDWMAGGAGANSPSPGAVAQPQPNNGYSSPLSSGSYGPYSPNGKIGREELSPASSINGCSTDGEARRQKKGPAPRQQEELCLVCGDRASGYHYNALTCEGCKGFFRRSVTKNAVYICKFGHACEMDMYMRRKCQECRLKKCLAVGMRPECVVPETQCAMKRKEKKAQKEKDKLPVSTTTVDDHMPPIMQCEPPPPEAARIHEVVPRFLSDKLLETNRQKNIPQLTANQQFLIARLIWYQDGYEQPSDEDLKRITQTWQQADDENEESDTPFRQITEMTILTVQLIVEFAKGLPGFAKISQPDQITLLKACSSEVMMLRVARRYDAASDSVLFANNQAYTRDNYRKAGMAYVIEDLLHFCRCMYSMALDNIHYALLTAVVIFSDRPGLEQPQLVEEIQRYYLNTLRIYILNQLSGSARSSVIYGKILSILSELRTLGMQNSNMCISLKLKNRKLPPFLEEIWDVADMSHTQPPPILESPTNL
Description: GAL4 DBD-CfEcR(DEF)/VP16AD-MmRXRE: The wild-type D, E, and F domains from spruce budworm Choristoneura fumiferana EcR (“CfEcR-DEF”; SEQ ID NO: 1) were fused to a GAL4 DNA binding domain (“Gal4 DBD1-147”; nucleotides 31 to 471 of SEQ ID NO: 2) and placed under the control of the SV40e promoter of pM vector (PT3119-5, Clontech, Palo Alto, Calif.). The D and E domains from Mus Musculus RXR (“MmRXR-DE”; SEQ ID NO: 10) were fused to the transactivation domain from VP16 (“VP16AD”; SEQ ID NO: 5) and placed under the control of the SV40e promoter of the pVP16 vector (PT3127-5, Clontech, Palo Alto, Calif.).
CHO cells were transienty transfected with transcription cassettes for GAL4 DBD-CfEcR(DEF) and for VP16AD-MmRXRE controlled by SV40e promoters. Stably transfected cells were selected using Hygromycin. Individually isolated CHO cell clones were transiently transfected with a GAL4 RE-luciferase reporter (pMR-Luc, Stratagene, La Jolla, Calif.). The 13B3 clone was selected using Zeocin.
Cells were trypsinized and diluted to a concentration of 2.5×10^4 cells mL. 100 μL of cell suspension was placed in each well of a 96 well plate and incubated at 37° C. under 5% CO2 for 24 h. Ligand stock solutions were prepared in DMSO and diluted 300 fold for all treatments. Dose response testing consisted of 8 concentrations ranging from 33 μM to 0.01 μM.
Luciferase reporter gene expression was measured 48 h after cell treatment using Bright-Glo™ Luciferase Assay System from Promega (E2650). Luminescence was detected at room temperature using a Dynex MLX microtiter plate luminometer.
Fold inductions were calculated from single dose testing by dividing relative light units (RLU) in ligand treated cells by RLU in DMSO treated cells. BC50s were calculated from dose response data using a three-parameter logistic model.

[2] = target: T2, Bombyx mori EcR (VP16 fusion, switch construct CVBE) with 6XEcRE LacZ reporter (Bombyx mori, UniProt P49881); experiment: Z3 assay: β-galactosidase (LacZ) reporter gene fold induction in stably transformed human 293 kidney cells (clone Z3); format: cell-based; conditions: for Fold Induction Average, Z3 Assay (33 μM): single dose 33 μM, ligand treated / DMSO treated cells
T2 construct: expressed in transfected cells; host or cells: Human 293 kidney (HEK-293) cells, retrovirally infected, clone Z3
T2 sequence (P49881 86-606 limits assumed): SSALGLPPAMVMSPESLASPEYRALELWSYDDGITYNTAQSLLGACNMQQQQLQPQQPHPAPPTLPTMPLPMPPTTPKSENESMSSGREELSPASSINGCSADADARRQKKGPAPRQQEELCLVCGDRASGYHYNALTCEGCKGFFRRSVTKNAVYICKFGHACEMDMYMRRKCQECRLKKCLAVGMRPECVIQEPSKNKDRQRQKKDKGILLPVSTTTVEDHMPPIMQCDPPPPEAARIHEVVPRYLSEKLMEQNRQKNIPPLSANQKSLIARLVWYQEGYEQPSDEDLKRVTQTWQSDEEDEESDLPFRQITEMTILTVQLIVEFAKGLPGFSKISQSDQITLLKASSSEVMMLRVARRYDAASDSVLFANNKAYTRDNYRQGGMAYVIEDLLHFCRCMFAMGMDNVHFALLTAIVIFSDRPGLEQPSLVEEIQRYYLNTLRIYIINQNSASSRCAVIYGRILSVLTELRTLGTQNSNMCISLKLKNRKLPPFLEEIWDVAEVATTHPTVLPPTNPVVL
T2 sequence (P19793 1-462 partner): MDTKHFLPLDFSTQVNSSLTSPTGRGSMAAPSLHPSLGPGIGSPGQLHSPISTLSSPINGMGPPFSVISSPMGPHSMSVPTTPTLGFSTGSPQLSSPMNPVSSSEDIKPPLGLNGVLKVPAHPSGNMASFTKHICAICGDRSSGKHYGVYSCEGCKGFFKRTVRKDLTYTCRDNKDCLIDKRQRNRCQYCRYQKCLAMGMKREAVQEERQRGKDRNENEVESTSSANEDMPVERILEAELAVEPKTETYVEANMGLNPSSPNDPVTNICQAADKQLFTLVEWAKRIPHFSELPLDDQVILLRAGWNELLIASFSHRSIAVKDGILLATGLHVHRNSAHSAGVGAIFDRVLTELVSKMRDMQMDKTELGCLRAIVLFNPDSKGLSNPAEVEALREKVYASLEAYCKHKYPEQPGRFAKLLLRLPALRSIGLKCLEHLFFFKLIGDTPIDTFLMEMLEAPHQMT
Description: Dr. F. Gage provided a population of stably transformed cells containing CVBE and 6XEcRE as described in Suhr, S. T., Gil, E. B., Senut M. C., Gage, F. H. (1998) Proc. Natl. Acad. Sci. USA 95, 7999-804. Human 293 kidney cells, also referred to as HEK-293 cells, were sequentially infected with retroviral vectors encoding first the switch construct CVBE, and subsequently the reporter construct 6XEcRE Lac Z. The switch construct contained the coding sequence for amino acids 26-546 from Bombyx mori EcR (BE) (Iatrou) inserted in frame and downstream of the VP16 transactivation domain (VBE). A synthetic ATG start codon was placed under the control of cytomegalovirus (CVBE) immediate early promoter and flanked by long terminal repeats (LTR). The reporter construct contained six copies of the ecdysone response element (EcRE) binding site placed upstream of LacZ and flanked on both sides with LTR sequences (6XEcRE).
Dilution cloning was used to isolate individual clones. Clones were selected using 450 ug/mL G418 and 100 ng/mL puromycin. Individual clones were evaluated based on their response in the presence and absence of test ligands. Clone Z3 was selected for screening and SAR purposes.
Human 293 kidney cells stably transformed with CVBE and 6XEcRE lack were maintained in Minimum Essential Medium (Mediates, 10-010-CV) containing 10% FBS (Life Technologies, 26140-087), […] G418 (Mediates, 30-234-CR), and […] (Sigma, P-7255), at 37° C. in an atmosphere containing 5% CO2 and were subculture when they reached 75% confluence.
Z3 cells were seeded into 96-well tissue culture plates at a concentration of 2.5×10^3 cells per well and incubated at 37° C. in 5% CO2 for twenty-four hours. Stock solutions of ligands were prepared in DMSO. Ligand stock solutions were diluted 100 fold in media and 50 μL of this diluted ligand solution (33 μM) was added to cells. The final concentration of DMSO was maintained at […] in both controls and treatments.
Reporter gene expression was evaluated 48 hours after treatment of cells, β-galactosidase activity was measured using Gal Screen™ bioluminescent reporter gene assay system from Tropix (GSY1000).
Flanking both constructs are long terminal repeats, G418 and puromycin are selectable markers, CMV is the cytomegalovirus promoter, VBE is coding sequence for amino acids 26-546 from Bombyx mori EcR inserted downstream of the VP16 transactivation domain, 6×EcRE is six copies of the ecdysone response element, lacZ encodes for the reporter enzyme β-galactosidase. Suhr, S. T., Gil, E. B., Senut M. C., Gage, F. H. (1998) Proc. Natl. Acad. Sci. USA 95, 7999-804. Swevers, L., Drevet, J. R., Lunke, M. D., Iatrou, K. (1995) Insect Biochem. Mol. Biol. 25, 857-866.

SMILES	Fold Induction Average, 13B3 Assay (33 μM) [1]	Fold Induction Average, Z3 Assay (33 μM) [2]	Fold Induction Average, 13B3 Assay (33 μM) ([1]; single dose 33 μM, RLU ligand treated / RLU DMSO treated cells)	CC50 ([2]; average, dose response, three-parameter logistic model, read-out: Z3 LC50)	Z3 Rel Max FI ([2]; maximum fold induction at any concentration relative to that of GS-E ligand)
COc1cccc(C(=O)NC2(C(=O)c3cccc(C)c3)CCC(=O)CC2)c1C [Example 61]	0	102			
CC(=O)NC(C(=O)c1ccc(C)cc1)c1ccccc1 (stereo not drawn) [Example 92]	0	1			
CC(=O)NC(C(=O)c1ccccc1)c1ccc(C)cc1 (stereo not drawn) [Example 93]	0	1			
CC(=O)NC(C(=O)c1ccccc1)c1ccccc1 (stereo not drawn) [Example 94]	1	1			
CC(C)(NC(=O)c1ccc(Cl)cc1)C(=O)c1ccccc1 [Example 95]		4	1	820 nM	2.27
Cc1ccc(C(=O)NC(C(=O)c2ccccc2)C(C)(C)C)cc1 (stereo not drawn) [Example 96]	0	1			
Cc1cccc(C(=O)NC(C(=O)c2ccccc2)C(C)(C)C)c1C (stereo not drawn) [Example 97]	0	1			
CC(C)(C)C(NC(=O)c1ccc([N+](=O)[O-])cc1)C(=O)c1ccccc1 (stereo not drawn) [Example 98]	0	1			
COc1cccc(C(=O)C2(NC(=O)c3cccc(OC)c3C)CC2)c1 [Example 99]	0	1			
COc1cccc(C(=O)C(C)(Cc2ccccc2)NC(=O)c2cccc(OC)c2C)c1 (stereo not drawn) [Example 100]	0	2			
COc1cccc(C(=O)NC2(C(=O)c3ccccc3C)CC2)c1C [Example 101]	2	2			
Cc1c(C(=O)NC2(C(=O)c3ccccc3)CCCC2)oc2ccccc12 [Example 102]	1	1			
CC(C)(NC(=O)c1ccccc1)C(=O)c1ccccc1 [Example 104]	0	1			
Cc1ccccc1C(=O)NC(C)(C)C(=O)c1ccccc1 [Example 105]	3	1			
CC(C)(NC(=O)c1ccc2c(c1)OCO2)C(=O)c1ccccc1 [Example 106]	3	1			
COc1cccc(C(=O)NC(C)(C)C(=O)c2ccccc2)c1 [Example 107]	2	1			
CCc1ccc(C(=O)NC(C)(C)C(=O)c2ccccc2)cc1 [Example 108]	1	2			
COc1cccc(C(=O)NC2(C(=O)c3cccc(C)c3)CCN(C(=O)OC(C)(C)C)CC2)c1C [Example 109]	0	3			
COc1cccc(C(=O)NC2(C(=O)c3cc(C)cc(C)c3)CCN(C(=O)OC(C)(C)C)CC2)c1C [Example 110]	2	1			
COc1cccc(C(=O)NC(C)(C(=O)c2ccc3c(c2)OCO3)C(C)C)c1C (stereo not drawn) [Example 111]	0	1			
COc1cccc(C(=O)NC(C)(C(C)=O)C(C)C)c1C (stereo not drawn) [Example 112]	2	1			
COc1cccc(C(=O)NC(C(=O)c2cccc(C)c2)C(C)(C)C)c1C (stereo not drawn) [Example 113]	1	4			
COc1cccc(C(=O)C(NC(=O)c2cccc(OC)c2C)C(C)(C)C)c1 (stereo not drawn) [Example 114]	2	3			
COc1cccc(C(=O)NC(C(=O)c2cc(C)cc(C)c2)C(C)(C)C)c1C (stereo not drawn) [Example 115]	1	15			
COc1ccccc1C(=O)NC(C)(C)C(=O)c1cccc(C)c1 [Example 116]	4	1			
COc1ccc(C(=O)C(C)(CC(C)C)NC(=O)c2cccc(OC)c2C)cc1 (stereo not drawn) [Example 118]	0	1			
